Like-named read-outs stand apart in the source and are kept apart here. Each block holds one molecule with its values, some of them ahead of it.
What was measured:
[1] = tested on: A-549; assay: Inhibition of cells growth by colorimetric (SRB) assay, A-549; details: for GI50 / CC50: Homo sapiens, A549, 48 h
From the text: (§1) The finality of these assays is to interrupt the growth of a “in vitro” tumor cell culture by means a continued exhibition of the cells to the sample to be testing.
(§2) This form of the assay employs 96 well cell culture microplates of 9 mm diameter (Faircloth, 1988; Mosmann, 1983). Most of the cell lines are obtained from American Type Culture Collection (ATCC) derived from different human cancer types.
(§3) Cells are maintained in RPMI 1640 10% FBS, supplemented with 0.1 g/l penicillin and 0.1 g/l streptomycin sulphate and then incubated at 37° C., 5% CO2 and 98% humidity. For the experiments, cells were harvested from subconfluent cultures using trypsin and resuspended in fresh medium before plating.
(§4) Cells are seeded in 96 well microtiter plates, at 5×10^3 cells per well in aliquots of 195 μl medium, and they are allowed to attach to the plate surface by growing in drug free medium for 18 hours. Afterward, samples are added in aliquots of 5 μl in a ranging from 10 to 10^−8 μg/ml, dissolved in DMSO/EtOH/PBS (0.5:0.5:99). After 48 hours exposure, the antitumor effect are measured by the SRB methodology: cells are fixed by adding 50 μl of cold 50% (wt/vol) trichloroacetic acid (TCA) and incubating for 60 minutes at 4° C. Plates are washed with deionized water and dried. One hundred μl of SRB solution (0.4% wt/vol in 1% acetic acid) is added to each microtiter well and incubated for 10 minutes at room temperature. Unbound SRB is removed by washing with 1% acetic acid. Plates are air dried and bound stain is solubilized with Tris buffer. Optical densities are read on a automated spectrophotometric plate reader at a single wavelength of 490 nm.
(§5) The values for mean +/−SD of data from triplicate wells are calculated. Some parameters for cellular responses can be calculated: GI=growth inhibition, TGI=total growth inhibition (cytostatic effect) and LC=cell killing (cytotoxic effect).

[2] = tested on: HT-29; assay: Inhibition of cells growth by colorimetric (SRB) assay, HT-29; details: for GI50 / CC50: Homo sapiens, HT-29, 48 h
From the text: as §1, §2, §3, §4, §5

[3] = tested on: LoVo; assay: Inhibition of cells growth by colorimetric (SRB) assay, LoVo; details: for GI50 / CC50: Homo sapiens, LoVo, 48 h; for GI50: read-out: GI50 LOVO, SRB assay, 48 hours exposure; for CC50: read-out: LC50 LOVO, SRB assay, 48 hours exposure; for TGI LOVO: SRB assay, 48 hours exposure
From the text: as §1, §2, §3, §4, §5

[4] = tested on: IGROV-1; assay: Inhibition of cells growth by colorimetric (SRB) assay, IGROV-1; details: for GI50 / CC50: Homo sapiens, IGROV-1, 48 h; for GI50: read-out: GI50 IGROV, SRB assay, 48 hours exposure; for CC50: read-out: LC50 IGROV, SRB assay, 48 hours exposure; for TGI IGROV: SRB assay, 48 hours exposure
From the text: as §1, §2, §3, §4, §5

[5] = tested on: LoVo-Dox; assay: Inhibition of cells growth by colorimetric (SRB) assay, LoVo-Dox; details: for GI50 / CC50: Homo sapiens, 48 h; for GI50: read-out: GI50 LOVO-DOX, SRB assay, 48 hours exposure; for CC50: read-out: LC50 LOVO-DOX, SRB assay, 48 hours exposure; for TGI LOVO-DOX: SRB assay, 48 hours exposure
From the text: as §1, §2, §3, §4, §5

[6] = tested on: K-562; assay: Inhibition of cells growth by colorimetric (SRB) assay, K-562; details: for GI50 / CC50: Homo sapiens, K562, 48 h; for GI50: read-out: GI50 K-562, SRB assay, 48 hours exposure; for CC50: read-out: LC50 K-562, SRB assay, 48 hours exposure; for TGI K-562: SRB assay, 48 hours exposure
From the text: as §1, §2, §3, §4, §5

[7] = tested on: IGROV-ET; assay: Inhibition of cells growth by colorimetric (SRB) assay, IGROV-ET; details: for GI50 / CC50: Homo sapiens, 48 h; for GI50: read-out: GI50 IGROV-ET, SRB assay, 48 hours exposure; for CC50: read-out: LC50 IGROV-ET, SRB assay, 48 hours exposure; for TGI IGROV-ET: SRB assay, 48 hours exposure
From the text: as §1, §2, §3, §4, §5

[8] = tested on: PANC-1; assay: Inhibition of cells growth by colorimetric (SRB) assay, PANC-1; details: for GI50 / CC50: Homo sapiens, PANC-1, 48 h; for GI50: read-out: GI50 PANC-1, SRB assay, 48 hours exposure; for CC50: read-out: LC50 PANC-1, SRB assay, 48 hours exposure; for TGI PANC-1: SRB assay, 48 hours exposure
From the text: as §1, §2, §3, §4, §5

[9] = tested on: SK-OV-3; assay: Inhibition of cells growth by colorimetric (SRB) assay, SK-OV-3; details: for GI50 / CC50: Homo sapiens, SK-OV-3, 48 h; for GI50: read-out: GI50 SKOV-3, SRB assay, 48 hours exposure; for CC50: read-out: LC50 SKOV-3, SRB assay, 48 hours exposure; for TGI SKOV-3: SRB assay, 48 hours exposure
From the text: as §1, §2, §3, §4, §5

[10] = tested on: SK-MEL-28; assay: Inhibition of cells growth by colorimetric (SRB) assay, SK-MEL-28; details: for GI50 / CC50: Homo sapiens, SK-MEL-28, 48 h; for GI50: read-out: GI50 MEL-28, SRB assay, 48 hours exposure; for CC50: read-out: LC50 MEL-28, SRB assay, 48 hours exposure; for TGI MEL-28: SRB assay, 48 hours exposure
From the text: as §1, §2, §3, §4, §5

[11] = tested on: LNCaP; assay: Inhibition of cells growth by colorimetric (SRB) assay, LNCaP; details: for GI50 / CC50: Homo sapiens, LNCaP, 48 h; for GI50: read-out: GI50 LN-caP, SRB assay, 48 hours exposure; for CC50: read-out: LC50 LN-caP, SRB assay, 48 hours exposure; for TGI LN-caP: SRB assay, 48 hours exposure
From the text: as §1, §2, §3, §4, §5

[12] = tested on: DU-145; assay: Inhibition of cells growth by colorimetric (SRB) assay, DU-145; details: for GI50 / CC50: Homo sapiens, DU-145, 48 h; for GI50: read-out: GI50 DU-145, SRB assay, 48 hours exposure; for CC50: read-out: LC50 DU-145, SRB assay, 48 hours exposure; for TGI DU-145: SRB assay, 48 hours exposure
From the text: as §1, §2, §3, §4, §5

[13] = read-out: GI50 A-549, SRB assay, 48 hours exposure
[14] = read-out: LC50 A-549, SRB assay, 48 hours exposure
[15] = read-out: GI50 HT-29, SRB assay, 48 hours exposure
[16] = read-out: LC50 HT-29, SRB assay, 48 hours exposure

- GI50 [1, 13]: 16 µM
- GI50 [2, 15]: 16 µM
SMILES: COc1ccc(CNc2nccc(-c3c4c(OCc5ccccc5)ccnc4n4c(NCc5ccc(OC)cc5)nccc34)n2)cc1 [Compound 53]
- CC50 [1, 14]: 16 µM
- TGI A-549 ([1]; SRB assay, 48 hours exposure): 1.60E−05
- CC50 [2, 16]: 16 µM
- TGI HT-29 ([2]; SRB assay, 48 hours exposure): 1.60E−05

SMILES: CSc1nccc2c(C(C)C)c3cccnc3n12 [Compound 61]
- GI50 [1, 13]: 24.6 µM
- CC50 [1, 14]: ≥ 38.9 µM
- TGI A-549 ([1]; SRB assay, 48 hours exposure): 3.89E−05
- GI50 [3]: 23 µM
- CC50 [3]: ≥ 38.9 µM
- TGI LOVO [3]: 3.89E−05
- GI50 [4]: 15.7 µM
- CC50 [4]: ≥ 38.9 µM
- TGI IGROV [4]: 3.49E−05
- GI50 [5]: 13.7 µM
- CC50 [5]: ≥ 38.9 µM
- TGI LOVO-DOX [5]: 3.89E−05
- GI50 [6]: 9.79 µM
- CC50 [6]: ≥ 38.9 µM
- TGI K-562 [6]: 2.44E−05
- GI50 [7]: 7.34 µM
- CC50 [7]: ≥ 38.9 µM
- TGI IGROV-ET [7]: 2.27E−05
- GI50 [8]: 11.5 µM
- CC50 [8]: ≥ 38.9 µM
- TGI PANC-1 [8]: 3.83E−05
- GI50 [9]: 12.4 µM
- CC50 [9]: ≥ 38.9 µM
- TGI SKOV-3 [9]: 2.96E−05
- GI50 [10]: 20.2 µM
- CC50 [10]: ≥ 38.9 µM
- TGI MEL-28 [10]: 3.89E−05
- GI50 [2, 15]: 28.9 µM
- CC50 [2, 16]: ≥ 38.9 µM
- TGI HT-29 ([2]; SRB assay, 48 hours exposure): 3.89E−05
- GI50 [11]: 8.7 µM
- CC50 [11]: 37.1 µM
- TGI LN-caP [11]: 1.80E−05
- GI50 [12]: 14.9 µM
- CC50 [12]: ≥ 38.9 µM
- TGI DU-145 [12]: 3.89E−05

SMILES: Nc1nccc2c(-c3cccc([N+](=O)[O-])c3)c3cccnc3n12 [Compound 64]
- GI50 [1, 13]: 31.6 µM
- CC50 [1, 14]: 32.8 µM
- TGI A-549 ([1]; SRB assay, 48 hours exposure): 3.28E−05
- GI50 [3]: 23.3 µM
- CC50 [3]: 32.8 µM
- TGI LOVO [3]: 3.28E−05
- GI50 [4]: 14.4 µM
- CC50 [4]: 32.8 µM
- TGI IGROV [4]: 3.28E−05
- GI50 [5]: 22.7 µM
- CC50 [5]: 32.8 µM
- TGI LOVO-DOX [5]: 3.28E−05
- GI50 [6]: 9.24 µM
- CC50 [6]: 32.8 µM
- TGI K-562 [6]: 2.47E−05
- GI50 [7]: 18.9 µM
- CC50 [7]: 32.8 µM
- TGI IGROV-ET [7]: 3.28E−05
- GI50 [8]: 20.9 µM
- CC50 [8]: 32.8 µM
- TGI PANC-1 [8]: 3.28E−05
- GI50 [9]: 22.3 µM
- CC50 [9]: 32.8 µM
- TGI SKOV-3 [9]: 3.28E−05
- GI50 [10]: 21.7 µM
- CC50 [10]: 32.8 µM
- TGI MEL-28 [10]: 3.28E−05
- GI50 [2, 15]: 32.8 µM
- CC50 [2, 16]: 32.8 µM
- TGI HT-29 ([2]; SRB assay, 48 hours exposure): 3.28E−05
- GI50 [11]: 2.84 µM
- CC50 [11]: 19.9 µM
- TGI LN-caP [11]: 7.89E−06
- GI50 [12]: 31 µM
- CC50 [12]: 32.8 µM
- TGI DU-145 [12]: 3.28E−05

- GI50 [1, 13]: 5.35 µM
- GI50 [2, 15]: 1.22 µM
SMILES: COC(=O)C(C(=O)OC)c1nccc(-c2c3cccnc3n3c(N)nccc23)n1 [Compound 74]
- CC50 [1, 14]: 21.3 µM
- TGI A-549 ([1]; SRB assay, 48 hours exposure): 1.07E−05
- CC50 [2, 16]: 25.5 µM
- TGI HT-29 ([2]; SRB assay, 48 hours exposure): 2.55E−05

- GI50 ([1]; read-out: A-549 GI50, SRB assay, 48 hours exposure): 25.1 µM
- GI50 ([2]; read-out: HT-29 GI50, SRB assay, 48 hours exposure): 25.1 µM
SMILES: COc1ccc(COc2nccc(-c3c4cccnc4n4c(N)nccc34)n2)cc1 [Compound 79]
- CC50 ([1]; read-out: A-549 LC50, SRB assay, 48 hours exposure): 25.1 µM
- A-549 TGI ([1]; SRB assay, 48 hours exposure): 2.51E−05
- CC50 ([2]; read-out: HT-29 LC50, SRB assay, 48 hours exposure): 25.1 µM
- HT-29 TGI ([2]; SRB assay, 48 hours exposure): 2.51E−05

- GI50 [1, 13]: 12.3 µM
- GI50 [2, 15]: 16.2 µM
SMILES: Nc1nccc(-c2c3c(OCc4ccccc4)ccnc3n3c(N)nccc23)n1 [Compound 96]
- CC50 [1, 14]: 26.1 µM
- TGI A-549 ([1]; SRB assay, 48 hours exposure): 2.61E−05
- CC50 [2, 16]: 26.1 µM
- TGI HT-29 ([2]; SRB assay, 48 hours exposure): 2.61E−05

- GI50 [1, 13]: 11.5 µM
- GI50 [2, 15]: 11.9 µM
SMILES: CCOc1nccc(-c2c3c(OCc4ccccc4)ccnc3n3c(N)nccc23)n1 [Compound 103]
- CC50 [1, 14]: 24.2 µM
- TGI A-549 ([1]; SRB assay, 48 hours exposure): 2.42E−05
- CC50 [2, 16]: 24.2 µM
- TGI HT-29 ([2]; SRB assay, 48 hours exposure): 2.42E−05

- GI50 [1, 13]: 21.1 µM
- GI50 [2, 15]: 21.1 µM
SMILES: Nc1nccc2c(-c3ccnc(OCc4ccccc4)n3)c3c(OCc4ccccc4)ccnc3n12 [Compound 104]
- CC50 [1, 14]: 21.1 µM
- TGI A-549 ([1]; SRB assay, 48 hours exposure): 2.11E−05
- CC50 [2, 16]: 21.1 µM
- TGI HT-29 ([2]; SRB assay, 48 hours exposure): 2.11E−05
